What was measured:
[1] = test system: CD14+ monocytes differentiated to M1 macrophages; test: M1 differentiation assay (macrophage cytokine secretion, ELISA); assay type: cell-based, human; settings: 10 uM
Protocol: Monocytes were isolated by positive isolation with CD14+ microbeads (Miltenyi, 130-050-201). Monocytes were 99% viable and were 96% purity as analyzed by FACS and CD14±(BD, 563561). 100,000 monocytes along with compounds at the dose of 10 and 50 μM were allowed to differentiate to macrophages with 10 ng/ml GMCSF (R&D,15-GM-050/CF) in RPMI complete media (Invitrogen, 22400089) with 15% FBS (Hyclone SV30087.03) and 1% Penicillin-Streptomycin (Gibco, 15140-122). On day 2 and 4 half the media was refreshed with fresh GM-CSF and compounds at 10 and 50 μM dose. On day 6 the macrophages were matured with GMCSF, IFN, (R&D 285-IF-100/CF) and LPS (Sigma, L6143) in the presence of 10 μM and 50 μM of compounds. After 24h, supernatant was collected for the measurement of TNFα (DKW, 1117202), IL6 (DKW, 1110602), IL10 (DKW, 1110003) by ELISA. Macrophages were detached gently on ice with EDTA (Invitrogen, 15575-038) and analyzed by FACS (BD LSR Fortessa, 853492). […]

[2] = test system: MMA Patient fibroblasts (GM01673); test: Mitochondrial morphology imaging in MMA patient fibroblasts (GM01673); assay type: cell-based; settings: image compared with fragmented mitochondria in vehicle control
[3] = test system: MMA Patient fibroblasts (TSI 3739); test: Mitochondrial morphology imaging in MMA patient fibroblasts (TSI 3739); assay type: cell-based; settings: image compared with fragmented mitochondria in vehicle control
[4] = test system: MMA Patient fibroblasts (GM00371); test: Mitochondrial morphology imaging in MMA patient fibroblasts (GM00371); assay type: cell-based; settings: image compared with fragmented mitochondria in vehicle control

## CC(=O)NCCCC(=O)SC[C@H](NC(=O)CCNC(=O)[C@H](O)C(C)(C)CO)C(=O)O [Compound 215, (2R)-2-[3-[(2R)-2,4-dihydroxy-3,3-dimethylbutanamido]propanamido]-3-[(4-acetamidobutanoyl)sulfanyl]propanoic acid]
[1]
  % decrease in Macrophage IL-6 Secretion: ≥30%
  % decrease in Macrophage TNFα Secretion: ≥30%

## COC(=O)[C@H](CSC(=O)CCCOC(C)=O)NC(=O)CCNC(=O)[C@H](O)C(C)(C)CO [Compound 698, methyl (2R)-3-[[4-(acetyloxy)butanoyl]sulfanyl]-2-[3-[(2R)-2,4-dihydroxy-3,3-dimethylbutanamido]propanamido]propanoate]
[2]
  mitochondrial morphology (elongation and networking of mitochondria): elongation and networking of mitochondria promoted
[3]
  mitochondrial morphology (elongation and networking of mitochondria): elongation and networking of mitochondria promoted

## COC(=O)[C@H](CSC(=O)CCCNC(C)=O)NC(=O)CCNC(=O)[C@H](O)C(C)(C)CO [Compound 216, methyl (2R)-2-[3-[(2R)-2,4-dihydroxy-3,3-dimethylbutanamido]propanamido]-3-[(4-acetamidobutanoyl)sulfanyl]propanoate]
[2]
  mitochondrial morphology (elongation and networking of mitochondria): elongation and networking of mitochondria promoted
[3]
  mitochondrial morphology (elongation and networking of mitochondria): elongation and networking of mitochondria promoted

## COC(=O)[C@H](CSC(=O)CCCN)NC(=O)CCNC(=O)[C@H](O)C(C)(C)CO [Compound 72, methyl (2R)-3-[(4-aminobutanoyl)sulfanyl]-2-[3-[(2R)-2,4-dihydroxy-3,3-dimethylbutanamido]propanamido]propanoate]
[2]
  mitochondrial morphology (elongation and networking of mitochondria): elongation and networking of mitochondria promoted

## COC(=O)[C@H](CSC(=O)CCCO)NC(=O)CCNC(=O)[C@H](O)C(C)(C)CO [Compound 697, methyl (2R)-2-[3-[(2R)-2,4-dihydroxy-3,3-dimethylbutanamido]propanamido]-3-[(4-hydroxybutanoyl)sulfanyl]propanoate]
[4]
  mitochondrial morphology (elongation and networking of mitochondria): elongation and networking of mitochondria promoted
[2]
  mitochondrial morphology (elongation and networking of mitochondria): elongation and networking of mitochondria promoted
[3]
  mitochondrial morphology (elongation and networking of mitochondria): elongation and networking of mitochondria promoted
